Active and inactive are the calls of the source. The rule behind the calls is not given here.
Molecular target: Serine/threonine-protein kinase mTOR (Homo sapiens) (UniProt P42345)
Test: binders of mTOR FRB domain, biophysical, NMR (AID 1648)
Conditions: NMR binding to FRB domain, chemical shift

Serine/threonine-protein kinase mTOR (Homo sapiens), sequence (P42345 2015-2114): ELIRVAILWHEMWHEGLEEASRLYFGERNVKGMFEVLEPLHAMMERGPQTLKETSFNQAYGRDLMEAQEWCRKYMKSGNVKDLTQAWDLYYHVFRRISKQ

SMILES	Kd
CN1CCN(CC(=O)Nc2ccccc2)CC1	> 4 mM (inactive)
O=C(Cn1cnc2ccccc2c1=O)N1CCOCC1	> 4 mM (inactive)
O=C(CCc1ccc(O)cc1)c1c(O)cc(O)cc1O	> 4 mM (inactive)
CC(NC(=O)c1ccco1)c1ccc2c(c1)OCCO2 (stereo unspecified)	> 4 mM (inactive)
O=C(c1ccc(F)cc1)N1CCN(c2ncccn2)CC1	> 4 mM (inactive)
CN1C(=O)Cc2cc(S(N)(=O)=O)ccc21	> 4 mM (inactive)
COc1cccc(N2CCNCC2)c1	> 4 mM (inactive)
CN1C(=O)C2CC=C(Cl)CC2C1=O (stereo unspecified)	> 4 mM (inactive)
CC(C)(C(N)=O)/[N+]([O-])=C\c1ccccc1	> 4 mM (inactive)
OCc1sccc1-n1cccc1	> 4 mM (inactive)
Cc1onc(-c2ccccc2)c1CO	> 4 mM (inactive)
CN(C)c1ccc(N2C(=O)CCC2=O)cc1	> 4 mM (inactive)
NC(=O)c1cc2c(n(-c3ccccc3)c1=O)CCCC2=O	> 4 mM (inactive)
Cc1ccc(C)c(C(=O)n2cnnc2N)c1	> 4 mM (inactive)
CC1(C)C(=O)[C@@H]2C[C@@]3(O)C4=CC(=O)O[C@@H](c5ccoc5)[C@]4(C)CCC3C(C)(C2=O)[C@H]1CC(=O)O (stereo partly specified)	> 4 mM (inactive)
CC(=O)Nc1cnn(Cc2ccc(Br)cc2)c1	> 4 mM (inactive)
O=C(O)C1CC2CC1CCC2O (stereo unspecified)	> 4 mM (inactive)
Cc1cc(C)n(CC(=O)O)n1	> 4 mM (inactive)
O=C1CC[C@]23/C=C/C(=O)NCCCCNCCCNC(=O)/C=C/c4ccc(c2c4)O[C@@H]3C1	> 4 mM (inactive)

SMILES	Kd
Nc1nc(SCC(=O)c2ccc([N+](=O)[O-])cc2)n[nH]1	> 4 mM (inactive)
NC1=NC(=O)/C(=C\c2cccc(C(=O)O)c2)S1	> 4 mM (inactive)
C[C@@H]1CC[C@H]2[C@@H](C)C(=O)O[C@@H]3OC4(C)CC[C@@H]1[C@]32OO4	> 4 mM (inactive)
O=C(CC1SC(=O)NC1=O)Nc1ccccc1 (stereo unspecified)	> 4 mM (inactive)
CNC(=O)c1cccc(NC(=S)NC)c1	> 4 mM (inactive)
CC(=O)Nc1cc(O)cc(O)c1	> 4 mM (inactive)
Cn1ccnc1C(O)c1ccccc1 (stereo unspecified)	> 4 mM (inactive)
COC(=O)NCc1cc2cc(Cl)ccc2[nH]1	> 4 mM (inactive)
O=Cc1c(N2CCOCC2)nc2ccccn2c1=O	> 4 mM (inactive)
C[C@@H]1O[C@@H](O[C@H]2CC[C@]3(C=O)C4CC[C@]5(C)[C@@H](C6=CC(=O)OC6)CC[C@]5(O)C4CC[C@]3(O)C2)[C@H](O)[C@H](O)[C@H]1O (stereo partly specified)	> 4 mM (inactive)
O=C(O)Cn1nc(-c2ccccc2)c2ccccc2c1=O	> 4 mM (inactive)
Cc1cc(NC(=O)CCCn2cnc([N+](=O)[O-])n2)no1	> 4 mM (inactive)
Cc1ccc(S(C)(=O)=O)s1	> 4 mM (inactive)
COc1cccc(C(=O)N2CCOCC2)c1	> 4 mM (inactive)
CCN1C[C@@]2(COC)C3[C@@H](OC)[C@H]4[C@@H]1[C@]3(C(OC)C[C@H]2O)C1C[C@@]2(O)[C@H](OC(=O)c3ccccc3)C1[C@]4(OC(C)=O)[C@@H](O)[C@@H]2OC (stereo partly specified)	> 4 mM (inactive)
CNc1nnc(CSc2nc(C)cc(C)n2)s1	> 4 mM (inactive)
CCn1cnc2scc(-c3ccccc3)c2c1=O	> 4 mM (inactive)
COc1cc2c(cc1OC)[C@@H]1C(=O)c3ccc(O)c(CC=C(C)C)c3O[C@@H]1CO2	> 4 mM (inactive)
COc1ccc2c(c1)OC[C@@H](Cc1ccc(OC)c(OC)c1)[C@H]2O	> 4 mM (inactive)

SMILES	Kd
Cc1nn2c(-c3ccncc3)nnc2c2ccccc12	> 4 mM (inactive)
CC(=O)NC12CC3CC(CC(O)(C3)C1)C2	> 4 mM (inactive)
Cc1nnc(SCC(=O)NC2CCCC2)[nH]c1=O	> 4 mM (inactive)
O=C(C1CCCCC1)N1CCN(c2ccccc2F)CC1	> 4 mM (inactive)
NC(=O)c1sc2ccccc2c1Cl	> 4 mM (inactive)
CCC(=O)Nc1cc(C(C)C)c(O)cc1C	> 4 mM (inactive)
Cn1c(=O)c2c(ncn2CCNC2=NCCC2)n(C)c1=O	> 4 mM (inactive)
Cc1cc(N2C(=O)CCC2=O)n(-c2ccccc2)n1	> 4 mM (inactive)
Cn1c(=O)[nH]c(=O)c2nsnc21	> 4 mM (inactive)
O=C(O)C1CSC(c2cc3ccccc3nc2Cl)N1 (stereo unspecified)	> 4 mM (inactive)
Cc1noc(C)c1C(=O)NC1=NCCS1	> 4 mM (inactive)
CC(=O)c1c(C)n(O)c2ccc3nonc3c12	> 4 mM (inactive)
CC1(c2ccncc2)NC(=O)NC1=O (stereo unspecified)	> 4 mM (inactive)
Cc1ccc(C(O)c2nccn2C)o1 (stereo unspecified)	> 4 mM (inactive)
Cc1cc(NC(=O)c2ccc3c(c2)OCCO3)no1	> 4 mM (inactive)
CN1C2CC(OC(=O)[C@H](CO)c3ccccc3)C[C@H]1[C@H]1OC21 (stereo partly specified)	> 4 mM (inactive)
NC(CCC(=O)Nc1ccc([N+](=O)[O-])cc1)C(=O)O (stereo unspecified)	> 4 mM (inactive)
O=C(Nc1ccc(Cl)cc1)N1CCCC1	> 4 mM (inactive)
